Laboratory results as given in ChEMBL document CHEMBL3046957, “Synthesis of new oxadiazole derivatives as anti-inflammatory, analgesic, and antimicrobial agents” (2013).

Tests used:
Assay type in all cases: functional
[1] = system: Mus musculus; assay: Analgesic activity in Swiss albino Mus musculus (mouse) assessed as latency time of heat-induced paw licking/jumping behaviour at 10 mg/kg after 0.5 hr by Eddy's hot plate method (reference value: 4.17 +/- 0.04 secs)
[2] = system: Escherichia coli; assay: Antibacterial activity against Escherichia coli assessed as growth inhibition at 100 ug/mL after 24 to 48 hr by cup-plate method; conditions: read-out: DIZ
[3] = system: Rattus norvegicus; assay: Anti-inflammatory activity in Wistar albino Rattus norvegicus (rat) assessed as inhibition of carrageenan-induced paw edema at 10 mg/kg, po administered 30 min prior to carrageenan challenge measured after 0.5 hr by plethysmometric analysis relative to untreated control
[4] = system: Staphylococcus aureus; assay: Antibacterial activity against Staphylococcus aureus assessed as growth inhibition at 100 ug/mL after 24 to 48 hr by cup-plate method; conditions: read-out: DIZ
[5] = system: Rattus norvegicus; assay: Anti-inflammatory activity in Wistar albino Rattus norvegicus (rat) assessed as inhibition of carrageenan-induced paw edema at 10 mg/kg, po administered 30 min prior to carrageenan challenge measured after 2 hr by plethysmometric analysis relative to untreated control
[6] = system: Mus musculus; assay: Analgesic activity in Swiss albino Mus musculus (mouse) assessed as latency time of heat-induced paw licking/jumping behaviour at 10 mg/kg after 1 hr by Eddy's hot plate method (reference value: 4.74 +/- 0.21 secs)
[7] = system: Aspergillus niger; assay: Antifungal activity against Aspergillus niger assessed as growth inhibition at 100 ug/mL after 24 hr by cup-plate method; conditions: read-out: DIZ
[8] = system: Mus musculus; assay: Analgesic activity in Swiss albino Mus musculus (mouse) assessed as latency time of heat-induced paw licking/jumping behaviour at 10 mg/kg after 2 hr by Eddy's hot plate method (reference value: 4.86 +/- 0.18 secs)
[9] = system: Pseudomonas aeruginosa; assay: Antibacterial activity against Pseudomonas aeruginosa assessed as growth inhibition at 50 ug/mL after 24 to 48 hr by cup-plate method; conditions: read-out: DIZ
[10] = system: Bacillus subtilis; assay: Antibacterial activity against Bacillus subtilis assessed as growth inhibition at 50 ug/mL after 24 to 48 hr by cup-plate method; conditions: read-out: DIZ
[11] = system: Rattus norvegicus; assay: Anti-inflammatory activity in Wistar albino Rattus norvegicus (rat) assessed as inhibition of carrageenan-induced paw edema at 10 mg/kg, po administered 30 min prior to carrageenan challenge measured after 1 hr by plethysmometric analysis relative to untreated control
[12] = system: Escherichia coli; assay: Antibacterial activity against Escherichia coli assessed as growth inhibition at 50 ug/mL after 24 to 48 hr by cup-plate method; conditions: read-out: DIZ
[13] = system: Staphylococcus aureus; assay: Antibacterial activity against Staphylococcus aureus assessed as growth inhibition at 50 ug/mL after 24 to 48 hr by cup-plate method; conditions: read-out: DIZ
[14] = system: Mus musculus; assay: Analgesic activity in Swiss albino Mus musculus (mouse) assessed as latency time of heat-induced paw licking/jumping behaviour at 10 mg/kg after 4 hr by Eddy's hot plate method (reference value: 4.57 +/- 0.11 secs)
[15] = system: Rattus norvegicus; assay: Anti-inflammatory activity in Wistar albino Rattus norvegicus (rat) assessed as inhibition of carrageenan-induced paw edema at 10 mg/kg, po administered 30 min prior to carrageenan challenge measured after 1.5 hr by plethysmometric analysis relative to untreated control
[16] = system: Aspergillus niger; assay: Antifungal activity against Aspergillus niger assessed as growth inhibition at 50 ug/mL after 24 hr by cup-plate method; conditions: read-out: DIZ
[17] = system: Candida albicans; assay: Antifungal activity against Candida albicans assessed as growth inhibition at 50 ug/mL after 24 hr by cup-plate method; conditions: read-out: DIZ
[18] = system: Bacillus subtilis; assay: Antibacterial activity against Bacillus subtilis assessed as growth inhibition at 100 ug/mL after 24 to 48 hr by cup-plate method; conditions: read-out: DIZ
[19] = system: Pseudomonas aeruginosa; assay: Antibacterial activity against Pseudomonas aeruginosa assessed as growth inhibition at 100 ug/mL after 24 to 48 hr by cup-plate method; conditions: read-out: DIZ
[20] = system: Rattus norvegicus; assay: Anti-inflammatory activity in Wistar albino Rattus norvegicus (rat) assessed as inhibition of carrageenan-induced paw edema at 10 mg/kg, po administered 30 min prior to carrageenan challenge measured after 3 hr by plethysmometric analysis relative to untreated control
[21] = system: Candida albicans; assay: Antifungal activity against Candida albicans assessed as growth inhibition at 100 ug/mL after 24 hr by cup-plate method; conditions: read-out: DIZ

COc1ccc(F)cc1-c1cccc(-c2n[nH]c(=O)o2)c1
Time [1]: 4.22 s
zone of inhibition at 100 µg/mL [2]: 14 mm
inhibition in vivo at 10 mg/kg [3]: 25%
zone of inhibition at 100 µg/mL [4]: 13 mm
inhibition in vivo at 10 mg/kg [5]: 56%
Time [6]: 4.74 s
zone of inhibition at 100 µg/mL [7]: 28 mm
Time [8]: 7.41 s
zone of inhibition at 50 µg/mL [9]: 10 mm
zone of inhibition at 50 µg/mL [10]: 8 mm
inhibition in vivo at 10 mg/kg [11]: 41%
zone of inhibition at 50 µg/mL [12]: 8 mm
zone of inhibition at 50 µg/mL [13]: 9 mm
Time [14]: 6.35 s
inhibition in vivo at 10 mg/kg [15]: 49%
zone of inhibition at 50 µg/mL [16]: 15 mm
zone of inhibition at 50 µg/mL [17]: 12 mm
zone of inhibition at 100 µg/mL [18]: 12 mm
zone of inhibition at 100 µg/mL [19]: 13 mm
inhibition in vivo at 10 mg/kg [20]: 71%
zone of inhibition at 100 µg/mL [21]: 21 mm

COC(=O)CCCn1nc(-c2cccc(-c3cc(F)ccc3OC)c2)oc1=O
Time [1]: 5.51 s
zone of inhibition at 100 µg/mL [2]: 18 mm
inhibition in vivo at 10 mg/kg [3]: 31%
zone of inhibition at 100 µg/mL [4]: 18 mm
inhibition in vivo at 10 mg/kg [5]: 74%
Time [6]: 5.84 s
zone of inhibition at 100 µg/mL [7]: 16 mm
Time [8]: 7.81 s
zone of inhibition at 50 µg/mL [9]: 11 mm
zone of inhibition at 50 µg/mL [10]: 10 mm
inhibition in vivo at 10 mg/kg [11]: 45%
zone of inhibition at 50 µg/mL [12]: 10 mm
zone of inhibition at 50 µg/mL [13]: 11 mm
Time [14]: 7.28 s
inhibition in vivo at 10 mg/kg [15]: 61%
zone of inhibition at 50 µg/mL [16]: 11 mm
zone of inhibition at 50 µg/mL [17]: 11 mm
zone of inhibition at 100 µg/mL [18]: 13 mm
zone of inhibition at 100 µg/mL [19]: 14 mm
inhibition in vivo at 10 mg/kg [20]: 87%
zone of inhibition at 100 µg/mL [21]: 17 mm

COc1ccc(F)cc1-c1cccc(-c2nn(CCCCF)c(=O)o2)c1
Time [1]: 5.55 s
zone of inhibition at 100 µg/mL [2]: 20 mm
inhibition in vivo at 10 mg/kg [3]: 36%
zone of inhibition at 100 µg/mL [4]: 25 mm
inhibition in vivo at 10 mg/kg [5]: 83%
Time [6]: 5.24 s
zone of inhibition at 100 µg/mL [7]: 10 mm
Time [8]: 7.88 s
zone of inhibition at 50 µg/mL [9]: 18 mm
zone of inhibition at 50 µg/mL [10]: 20 mm
inhibition in vivo at 10 mg/kg [11]: 51%
zone of inhibition at 50 µg/mL [12]: 17 mm
zone of inhibition at 50 µg/mL [13]: 19 mm
Time [14]: 7.04 s
inhibition in vivo at 10 mg/kg [15]: 67%
zone of inhibition at 50 µg/mL [16]: 9 mm
zone of inhibition at 50 µg/mL [17]: 8 mm
zone of inhibition at 100 µg/mL [18]: 24 mm
zone of inhibition at 100 µg/mL [19]: 21 mm
inhibition in vivo at 10 mg/kg [20]: 95%
zone of inhibition at 100 µg/mL [21]: 11 mm
